Numbered stars: 1 amine (or outer) side, 2 acyl side, 3 side chain; on linkers, the order of the positions; unused ones are H or OH. Bridge positions count the residues as written; N and C are the ends. Square brackets hold non-standard residues; d marks the D form. Side chains are listed from the residue outwards. Peptide text beside a SMILES is read from it. * marks the point of attachment. ξ: configuration not given here. Ala(piperidin-4-yl) = O=C([C@H](CC1CCN([*:3])CC1)N[*:1])[*:2]; DOTA = O=C(O)CN1CCN(CC(=O)O)CCN(CC(=O)*)CCN(CC(=O)O)CC1; Phe(4-CH2NH2) = NCc1ccc(C[C@H](N)C(=O)O)cc1; Lys(Me3) = C[N+](C)(C)CCCC[C@H](N)C(=O)O; Phe(2-Cl) = N[C@@H](Cc1ccccc1Cl)C(=O)O; 1Nal = N[C@@H](Cc1cccc2ccccc12)C(=O)O; 2Nal = N[C@@H](Cc1ccc2ccccc2c1)C(=O)O; Phe(2-Me) = Cc1ccccc1C[C@H](N)C(=O)O; NMeChg = CN[C@H](C(=O)O)C1CCCCC1; Trx = NC[C@H]1CC[C@H](C(=O)O)CC1; tBuAla = CC(C)(C)C[C@H](N)C(=O)O; dAllylGly = C=CC[C@@H](N)C(=O)O; Chg = N[C@H](C(=O)O)C1CCCCC1; αMeP = C[C@@]1(C(=O)O)CCCN1; CH2 = C([*:1])[*:2]; ξC = NC(CS)C(=O)O
T1: Biotinylated human DLL3 (human, UniProt Q9NYJ7 27-492, biotinylated (site not stated))
T1 construct: also called Delta-like ligand 3; Delta Like Canonical Notch Ligand 3
T1 sequence (looked up): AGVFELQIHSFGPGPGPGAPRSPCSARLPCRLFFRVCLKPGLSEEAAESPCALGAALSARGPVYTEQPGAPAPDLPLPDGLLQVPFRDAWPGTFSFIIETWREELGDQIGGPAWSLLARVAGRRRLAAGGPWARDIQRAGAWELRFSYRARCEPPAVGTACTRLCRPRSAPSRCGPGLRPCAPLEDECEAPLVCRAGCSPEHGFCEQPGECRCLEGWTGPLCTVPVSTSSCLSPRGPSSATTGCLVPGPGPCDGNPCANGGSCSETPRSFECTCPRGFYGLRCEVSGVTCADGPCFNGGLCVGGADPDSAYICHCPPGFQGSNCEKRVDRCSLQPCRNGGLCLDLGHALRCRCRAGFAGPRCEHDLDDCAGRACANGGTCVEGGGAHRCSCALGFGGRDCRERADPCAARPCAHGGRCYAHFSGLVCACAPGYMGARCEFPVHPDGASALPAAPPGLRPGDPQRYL

T2: human DLL3 (Homo sapiens, UniProt Q9NYJ7)
T2 construct: biotin (biotinylated)
T2 sequence (Q9NYJ7 27-618): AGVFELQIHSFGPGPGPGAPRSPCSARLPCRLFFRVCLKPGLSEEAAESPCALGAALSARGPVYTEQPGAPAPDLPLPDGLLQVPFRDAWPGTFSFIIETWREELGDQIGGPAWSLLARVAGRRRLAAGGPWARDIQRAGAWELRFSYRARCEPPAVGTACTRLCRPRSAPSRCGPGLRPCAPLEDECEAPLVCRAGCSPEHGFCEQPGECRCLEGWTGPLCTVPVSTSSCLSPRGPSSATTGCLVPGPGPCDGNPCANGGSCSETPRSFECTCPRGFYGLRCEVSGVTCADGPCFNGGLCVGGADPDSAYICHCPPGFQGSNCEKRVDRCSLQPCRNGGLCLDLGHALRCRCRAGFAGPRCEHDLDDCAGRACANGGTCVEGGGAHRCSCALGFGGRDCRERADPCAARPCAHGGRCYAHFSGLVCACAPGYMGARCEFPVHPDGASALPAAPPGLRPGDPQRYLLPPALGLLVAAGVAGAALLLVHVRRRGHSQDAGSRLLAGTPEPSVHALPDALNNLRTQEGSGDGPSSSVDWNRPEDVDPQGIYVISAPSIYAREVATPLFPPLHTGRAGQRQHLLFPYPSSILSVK


Molecular target: T1, Biotinylated human DLL3
Assay: SPR, biotin-hDLL3 on SA chip
Conditions: not given

| Kd [nM] | Molecule |
| --- | --- |
| 8.5 | Ac-[dA]SDCWLQWNCPFD-NH2 (disulfide 4-10) [Cpd #8] |
| 35.1 | Ac-M[dA]DCWLQWNCPFD-NH2 (disulfide 4-10; SMILES CSCC[C@H](NC(C)=O)C(=O)N[C@H](C)C(=O)N[C@@H](CC(=O)O)C(=O)N[C@H]1CSSC[C@@H](C(=O)N2CCC[C@H]2C(=O)N[C@@H](Cc2ccccc2)C(=O)N[C@@H](CC(=O)O)C(N)=O)NC(=O)[C@H](CC(N)=O)NC(=O)[C@H](Cc2c[nH]c3ccccc23)NC(=O)[C@H](CCC(N)=O)NC(=O)[C@H](CC(C)C)NC(=O)[C@H](Cc2c[nH]c3ccccc23)NC1=O) [Cpd #9] |

Molecular target: T2, human DLL3
Assay: Affinity determination by Surface Plasmon Resonance (SPR), Biacore, 1:1 binding model
Conditions: biotinylated human DLL3 on streptavidin chip, 25° C.; NB = nonbinding
In short: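 SPR with biotinylated human DLL3 captured on a streptavidin chip, with a reference surface subtracted. Samples were injected at several concentrations at 100 μL/min in phosphate buffer with 137 mM NaCl, 2.7 mM KCl, 0.05% P20 and 2% DMSO. Kinetic and affinity constants came from a 1:1 binding fit.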

| Molecule | Kd [nM] |
| --- | --- |
| CC(=O)N[C@H](C)C(=O)N[C@H](CO)C(=O)N[C@@H](CC(=O)O)C(=O)N[C@H]1CSSC[C@@H](C(=O)N2CCC[C@@]2(C)C(=O)N[C@@H](Cc2ccccc2C)C(=O)N[C@@H](CC(=O)O)C(N)=O)NC(=O)[C@H](CC(N)=O)NC(=O)[C@H](Cc2ccc3ccccc3c2)NC(=O)[C@H](CCCCNC(=O)[C@H]2CC[C@H](CNC(=O)CN3CCN(CC(=O)O)CCN(CC(=O)O)CCN(CC(=O)O)CC3)CC2)NC(=O)[C@H](CC(C)(C)C)NC(=O)[C@H](Cc2cccc3ccccc23)NC1=O [Cpd #151, Ac-(D-Ala)-S-D-C(3)-(1Nal)-(t-Bu-Ala)-[L-Lys(Chx-DOTA)]-(2Nal)-N-C(3)-(aMe-P)-(2Me-F)-D-CONH2] (Ac-[dA][dS]DC[1Nal][tBuAla]K([Trx-DOTA])[2Nal]NC[αMeP][Phe(2-Me)]D-NH2; disulfide 4-10) | 0.28 |
| CC(=O)N[C@H](C(=O)N[C@@H](CO)C(=O)N[C@@H](CC(=O)O)C(=O)N[C@H]1CSSC[C@@H](C(=O)N2CCC[C@@]2(C)C(=O)N[C@@H](Cc2ccccc2Cl)C(=O)N[C@@H](CC(=O)O)C(=O)N[C@H](CCCCNC(=O)CN2CCN(CC(=O)O)CCN(CC(=O)O)CCN(CC(=O)O)CC2)C(N)=O)NC(=O)[C@H](CC(N)=O)NC(=O)[C@H](Cc2c[nH]c3ccccc23)NC(=O)[C@H](CCC(N)=O)NC(=O)[C@H](CC(C)C)NC(=O)[C@H](Cc2cccc3ccccc23)NC1=O)C1CCCCC1 [compound 118, Ac-(Chg)-S-D-C(3)-(1Nal)-L-Q-W-N-C(3)-(aMe-P)-(2Cl-Phe)-D-D-Lys(DOTA)-CONH2] (Ac-[Chg]SDC[1Nal]LQWNC[αMeP][Phe(2-Cl)]D[dK](DOTA)-NH2; disulfide 4-10) | 0.74 |
| CC(=O)N[C@H](C(=O)N[C@@H](CO)C(=O)N[C@@H](CC(=O)O)C(=O)N[C@H]1CSSC[C@@H](C(=O)N2CCC[C@@]2(C)C(=O)N[C@@H](Cc2ccccc2)C(=O)N[C@@H](CC(=O)O)C(=O)N[C@H](CCCCNC(=O)CN2CCN(CC(=O)O)CCN(CC(=O)O)CCN(CC(=O)O)CC2)C(N)=O)NC(=O)[C@H](CC(N)=O)NC(=O)[C@H](Cc2c[nH]c3ccccc23)NC(=O)[C@H](CCC(N)=O)NC(=O)[C@H](CC(C)C)NC(=O)[C@H](Cc2cccc3ccccc23)NC1=O)C1CCCCC1 [compound 95, Ac-(Chg)-S-D-C(3)-(1Nal)-L-Q-W-N-C(3)-(aMe-P)-F-D-D-Lys(DOTA)-CONH2] (Ac-[Chg]SDC[1Nal]LQWNC[αMeP]FD[dK](DOTA)-NH2; disulfide 4-10) | 0.29 |
| CC(=O)N[C@H](C)C(=O)N[C@@H](CO)C(=O)N[C@@H](CC(=O)O)C(=O)N[C@H]1CSSC[C@@H](C(=O)N2CCC[C@H]2C(=O)N[C@@H](Cc2ccccc2)C(=O)N[C@@H](CC(=O)O)C(=O)N[C@H](CCCCNC(=O)CN2CCN(CC(=O)O)CCN(CC(=O)O)CCN(CC(=O)O)CC2)C(N)=O)NC(=O)[C@H](CC(N)=O)NC(=O)[C@H](Cc2c[nH]c3ccccc23)NC(=O)[C@H](CCC(N)=O)NC(=O)[C@H](CC(C)C)NC(=O)[C@H](Cc2cccc3ccccc23)NC1=O [compound 104, Ac-(D-Ala)-S-D-C(3)-(1Nal)-L-Q-W-N-C(3)-P-F-D-D-Lys(DOTA)-CONH2] (Ac-[dA]SDC[1Nal]LQWNCPFD[dK](DOTA)-NH2; disulfide 4-10) | 0.35 |
| CC(=O)N[C@@H](CCCC[N+](C)(C)C)C(=O)N[C@@H](CO)C(=O)N[C@@H](CC(=O)O)C(=O)N[C@H]1CSSC[C@@H](C(=O)N2CCC[C@H]2C(=O)N[C@@H](Cc2ccccc2)C(=O)N[C@@H](CC(=O)O)C(=O)N[C@H](CCCCNC(=O)CN2CCN(CC(=O)O)CCN(CC(=O)O)CCN(CC(=O)O)CC2)C(N)=O)NC(=O)[C@H](CC(N)=O)NC(=O)[C@H](Cc2c[nH]c3ccccc23)NC(=O)[C@H](CCC(N)=O)NC(=O)[C@H](CC(C)C)NC(=O)[C@H](Cc2c[nH]c3ccccc23)NC1=O [compound 85, Ac-Lys(Me)3-S-D-C(3)-W-L-Q-W-N-C(3)-P-F-D-D-Lys(DOTA)-CONH2] (Ac-[Lys(Me3)]SDCWLQWNCPFD[dK](DOTA)-NH2; disulfide 4-10) | 14 |
| CC(=O)N[C@@H](CO)C(=O)N[C@@H](CC(=O)O)C(=O)N[C@H]1CSCSC[C@@H](C(=O)N2CCC[C@H]2C(=O)N[C@@H](Cc2ccccc2)C(=O)N[C@@H](CC(=O)O)C(=O)N[C@H](CCCCNC(=O)CN2CCN(CC(=O)O)CCN(CC(=O)O)CCN(CC(=O)O)CC2)C(N)=O)NC(=O)[C@H](CC(N)=O)NC(=O)[C@H](Cc2c[nH]c3ccccc23)NC(=O)[C@H](CCC(N)=O)NC(=O)[C@H](CC(C)C)NC(=O)[C@H](Cc2c[nH]c3ccccc23)NC1=O [Cpd #66, Ac-S-D-C(1)-W-L-Q-W-N-C(1)-P-F-D-D-Lys(DOTA)-CONH2] (Ac-SDCWLQWNCPFD[dK](DOTA)-NH2; linker 3-9 via CH2) | > 300 |

Continued, values first:

| Kd [nM] | Molecule |
| --- | --- |
| > 100 | CC(=O)N[C@@H](CC1CCNCC1)C(=O)N[C@@H](CO)C(=O)N[C@@H](CC(=O)O)C(=O)N[C@@H]1C/C=C/C[C@H](C(=O)N2CCC[C@@]2(C)C(=O)N[C@@H](Cc2ccccc2)C(=O)N[C@@H](CC(=O)O)C(N)=O)NC(=O)[C@H](CC(N)=O)NC(=O)[C@H](Cc2ccc3ccccc3c2)NC(=O)[C@H](Cc2ccc(CNC(=O)CN3CCN(CC(=O)O)CCN(CC(=O)O)CCN(CC(=O)O)CC3)cc2)NC(=O)[C@H](CC(C)(C)C)NC(=O)[C@H](Cc2cccc3ccccc23)NC1=O [compound 212, Ac-[3-(4-piperidinyl)-Ala]-S-D-D-AllyG(4)-(1Nal)-(t-Bu-Ala)-[PAF(DOTA)]-(2Nal)-N-D-AllyG(4)-(aMe-P)-F-D-CONH2] (Ac-[Ala(piperidin-4-yl)]SD[dAllylGly][1Nal][tBuAla][Phe(4-CH2NH2)](DOTA)[2Nal]N[dAllylGly][αMeP]FD-NH2; staple (E) 4-10) |
| > 30 | CC(=O)N[C@@H](CC1CCNCC1)C(=O)N[C@@H](CO)C(=O)N[C@@H](CC(=O)O)C(=O)N[C@H]1CSSC[C@@H](C(=O)N2CCC[C@@]2(C)C(=O)N[C@@H](Cc2ccccc2)C(=O)N[C@@H](CC(=O)O)C(N)=O)NC(=O)[C@H](CC(N)=O)NC(=O)[C@H](Cc2ccc3ccccc3c2)NC(=O)[C@H](Cc2ccc(CNC(=O)CN3CCN(CC(=O)O)CCN(CC(=O)O)CCN(CC(=O)O)CC3)cc2)NC(=O)[C@H](C2CCCCC2)N(C)C(=O)[C@H](Cc2cccc3ccccc23)NC1=O [compound 181, Ac-[3-(4-piperidinyl)-Ala]-S-D-C(3)-(1Nal)-(NMe-Chg)-[PAF(DOTA)]-(2Nal)-N-C(3)-(aMe-P)-F -D-CONH2] (Ac-[Ala(piperidin-4-yl)]SDC[1Nal][NMeChg][Phe(4-CH2NH2)](DOTA)[2Nal]NC[αMeP]FD-NH2; disulfide 4-10) |
| > 30 | CC(=O)N[C@H](C(=O)N[C@@H](CO)C(=O)N[C@@H](CC(=O)O)C(=O)NC1CSCSC[C@@H](C(=O)N2CCC[C@@]2(C)C(=O)N[C@@H](Cc2ccccc2)C(=O)N[C@@H](CC(=O)O)C(=O)N[C@H](CCCCNC(=O)CN2CCN(CC(=O)O)CCN(CC(=O)O)CCN(CC(=O)O)CC2)C(N)=O)NC(=O)[C@H](CC(N)=O)NC(=O)[C@H](Cc2c[nH]c3ccccc23)NC(=O)[C@H](CCC(N)=O)NC(=O)[C@H](CC(C)C)NC(=O)[C@H](Cc2cccc3ccccc23)NC1=O)C1CCCCC1 (stereo partly drawn) [compound 121, Ac-(Chg)-S-D-[D-Cys(1)]-(1Nal)-L-Q-W-N-C(1)-(aMe-P)-F-D-D-Lys(DOTA)-CONH2] (Ac-[Chg]SD[ξC][1Nal]LQWNC[αMeP]FD[dK](DOTA)-NH2; linker 4-10 via CH2) |
